Laboratory results published in publication PMC10035904, “Synthesis of novel sulphamethoxazole derivatives and exploration of their anticancer and antimicrobial properties” (PLOS ONE, 2023).
Values after ≈ are worked out from the molar mass of the structure shown.

Assays:
[1] = system: human prostate carcinoma cell line PPC-1; assay: MTT cell viability assay, PPC-1; format: cell-based; conditions: 72 hours of incubation, n = 3, read-out: EC50 against PPC-1
Description: The human clear cell renal cell carcinoma line (CaKi-1) was obtained from American Type Culture Collection (ATCC, Manassas, VA). The human prostate carcinoma cell line PPC-1 was originally obtained from ATCC and kindly provided by Prof. Tambet Teesalu (University of Tartu, Estonia). Human foreskin fibroblasts (HF) CRL-4001 were originally obtained from ATCC and kindly provided by Prof. Helder Santos (University of Helsinki, Finland). Cells were cultured in Dulbecco’s Modified Eagle’s GlutaMAX medium (Gibco (Carlsbad, CA, USA) supplemented with 10,000 U/mL penicillin, 10 mg/mL streptomycin (Gibco), and 10% fetal bovine serum (Gibco). During cell passaging, Tryple Express reagent (Gibco) was used for cell detachment. Cell cultures were grown at 37°C in a humidified atmosphere containing 5% CO2. They were used until the passage of 20.
The effect of synthesized compounds on cell viability was studied using 3-(4,5-dimethylthiazol-2-yl)-2,5-diphenyltetrazolium bromide (MTT; Sigma-Aldrich Co., St Louis, MO, USA) assay, as described elsewhere. […] The absorbance was measured at 570 and 630 nm using a multi-detection microplate reader. The compound effect on cell viability was calculated using a formula (1): Relativecellviability%=A−A0/ANC−A0 (1) Where: […]

[2] = system: Escherichia coli ATCC 25922; assay: Serial broth dilution in liquid medium, E. coli; format: cell-based; conditions: ATCC25922, Mueller-Hinton broth, 24 hours, n = 3
Description: (§1) Antibacterial and antifungal susceptibility to the compound 16b was tested using a serial broth dilution technique in Mueller-Hinton broth II (BBL, Cockeysville, USA), as described elsewhere. All procedures were done in aseptic conditions. Standard bacterial and fungal cultures were used: Staphylococcus aureus ATCC 25923, Staphylococcus epidermidis ATCC 12228, Escherichia coli ATCC 25922, Enterococcus faecalis ATCC 29212, Klebsiella pneumoniae ATCC 33499, Pseudomonas aeruginosa ATCC 27853, Proteus mirabilis ATCC 12459, Bacillus cereus ATCC 8035, and Candida albicans ATCC 60193. Standard cultures of nonsporic bacteria S. aureus, S. epidermidis, E. coli, E. faecalis, K. pneumoniae, P. aeruginosa and P. mirabilis were cultivated for 20–24 hours at 37°C in Mueller-Hinton Agar (BBL, Cockeysville, USA). A bacterial suspension was prepared from cultivated bacterial cultures in physiological solution according to turbidity standard 0.5 McFarland. Standard culture of sporic bacteria B. cereus was cultivated for 7 days at 37°C in Mueller-Hinton II Agar. […] Then the absorbance was measured at 600 nm using a multi-detection microplate reader. […]

[3] = system: Klebsiella pneumoniae ATCC 33499; assay: Serial broth dilution in liquid medium, K. pneumoniae; format: cell-based; conditions: ATCC33499, Mueller-Hinton broth, 24 hours, n = 3
Description: as §1

[4] = system: Proteus mirabilis ATCC 12459; assay: Serial broth dilution in liquid medium, P. mirabilis; format: cell-based; conditions: ATCC12459, Mueller-Hinton broth, 24 hours, n = 3
Description: as §1

[5] = system: Staphylococcus epidermidis ATCC 12228; assay: Serial broth dilution in liquid medium, S. epidermidis; format: cell-based; conditions: Mueller-Hinton broth, 24 hours; result in words
Description: as §1

[6] = system: Bacillus cereus ATCC 8035; assay: Serial broth dilution in liquid medium, B. cereus; format: cell-based; conditions: Mueller-Hinton broth, 24 hours; result in words
Description: as §1

[7] = system: Staphylococcus aureus ATCC 25923; assay: Serial dilution on solid agar, S. aureus; format: cell-based; conditions: ATCC25923, solid Mueller-Hinton agar, 24 hours
Description: (§2) Antimicrobial activity of compound 16b on solid agar was tested using the same microbial cultures, and the same suspension preparation procedure, as described in above section. All procedures were done in aseptic conditions.
(§3) Mueller-Hinton agar was boiled and kept at to 37 °C during the whole procedure. Compound 16b solution was prepared in DMSO right before experiment. The Agar was mixed with compound solution at different ratios to make the final compound concentrations of 1 mM, 400 μM, 200 μM and 100 μM. Then 10 ml of prepared solution was poured into sterile Petri dishes (85 mm in diameter) and kept in aseptic conditions while the agar solidified. The agar with 0.5% of DMSO served as a negative control. With the help of loop standard microbial cultures by 0.1 ml were poured on the surface of prepared agar with investigative compound. Then Petri dishes were kept for 24 hours in thermostatic conditions.
(§4) The minimal dilution, i.e. the lowest concentration in μg/mL of the investigative and comparison compounds that inhibited visible growth of microorganisms was the minimal inhibitory concentration (MIC).

[8] = system: Enterococcus faecalis ATCC 29212; assay: Serial dilution on solid agar, E. faecalis; format: cell-based; conditions: ATCC29212, solid Mueller-Hinton agar, 24 hours
Description: as §2, §3, §4

Cc1cc(NS(=O)(=O)c2ccc(NCCC(=O)NN=Cc3ccc([N+](=O)[O-])o3)cc2)no1 [Compound 16b, N-(5-methylisoxazol-3-yl)-4-((3-(2-((5-nitrofuran-2-yl)methylene)hydrazineyl)-3-oxopropyl)amino)-benzenesulfonamide]
EC50 [1]: 10.4 ± 3 µM | EC50 [2]: > 100 µM | EC50 [3]: > 100 µM | EC50 [4]: > 100 µM | sensitivity of S. epidermidis in liquid medium [5]: most sensitive | sensitivity of B. cereus in liquid medium [6]: most sensitive | MIC [7]: 100 µM (≈ 46.2 µg/mL) | MIC [8]: 1000 µM (≈ 462 µg/mL) | melting point: 221 to 222 °C
